Measured values as given in paper PMC11359702, “Synthesis and Biochemical Evaluation of Ethanoanthracenes and Related Compounds: Antiproliferative and Pro-Apoptotic Effects in Chronic Lymphocytic Leukemia (CLL)” (Pharmaceuticals, 2024).
Values joined by “and” are separate entries in the source; they are usually repeats but may differ in a detail not shown here. Equal entries are not always repeated. Where two headings read alike, the source gives them in different places.

How the values were obtained:
K-562 = experiment: NCI-60 five-dose assay; type: cell-based, human
PGA-1 cells [1] = experiment: alamarBlue cell viability assay; conditions: for IC50: read-out: PGA-1 IC50
[2] = test system: NCI 60 cancer cell line panel; experiment: NCI-60 five-dose assay, full-panel means; type: cell-based; conditions: for GI50: read-out: Mean GI50 (MID GI50, full-panel mean-graph mid-point)
Experimental: A number of our most promising compounds identified through preliminary cell viability testing (23c, 23d, 23f, 23h, 23l, 23m, 23n, 23o, 24f, 24l, 25n and 26n) were selected for NCI drug screening in the 60-cell-line panel. The panel includes nine subcategories based on cancer tissue types, which include leukemia, ovarian, central nervous system, breast, lung, prostate, skin, renal and colon cancer. The compounds were initially assessed in a one-dose assay at a fixed treatment concentration of 10 µM. The compounds selected for further investigation were progressed to a five-dose assay across the concentration ranges of 0.01, 0.1, 1, 10 and 100 µM [72]. The endpoints assessed in the screening protocol were GI50, TGI and LC50 [72].

HG-3 cells [3] = experiment: alamarBlue cell viability assay; conditions: for IC50: read-out: HG-3 IC50, HG-3, 24 h
[4] = test system: HG-3 and PGA-1 cell lines; experiment: alamarBlue cell viability assay, mean of both CLL cell lines; type: cell-based, human; conditions: mean of HG-3 and PGA-1
HL-60(TB) = experiment: NCI-60 five-dose assay; type: cell-based, human
leukemia cell panel = experiment: NCI-60 five-dose assay, leukemia cell panel mean; type: cell-based, human; conditions: mean across the six leukemia cell lines
MOLT-4 = experiment: NCI-60 five-dose assay; type: cell-based, human
RPMI-8226 = experiment: NCI-60 five-dose assay; type: cell-based, human
CCRF-CEM = experiment: NCI-60 five-dose assay; type: cell-based, human
SR = experiment: NCI-60 five-dose assay; type: cell-based, human
PGA-1 cells [5] = conditions: 10 µM
[6] = HPLC stability study in phosphate buffers; type: physicochemical; conditions: for Half-life pH 4 / % remaining 24 h pH 4: pH 4 buffer; for Half-life pH 4 / % remaining 24 h pH 4 / Half-life pH 7.4 / % remaining 24 h pH 7.4 / Half-life pH 9 / % remaining 24 h pH 9: 37 °C; for % remaining 24 h pH 4 / % remaining 24 h pH 7.4 / % remaining 24 h pH 9: HPLC; for Half-life pH 7.4 / % remaining 24 h pH 7.4: pH 7.4 buffer; for Half-life pH 9 / % remaining 24 h pH 9: pH 9 buffer
Experimental: A preliminary stability study was carried out on selected chalcones, maleic anhydride and maleimide adducts at acidic, neutral and basic conditions (pH 4, 7.4 and 9) using HPLC to determine suitability for further preclinical investigations. […] A possible degradation route for the maleimide 23n could be through the hydrolysis of the cyclic imide of the maleimide ring, leading to the resultant amic acid product.
All samples were analyzed using acetonitrile–water (80:20%, 70:30%, 60:40% isocratic) as the mobile phase over 10 min and a flow rate of 1 mL/min. Stock solutions were prepared by dissolving 5 mg of compounds in a mobile phase ([(acetonitrile (80%): water (20%)], 10 mL). Anhydride 22h was not detected at its retention time of 5.2 min at pH 9.0. The data presented represent the results of single experiments.
The HPLC stability studies for compounds 21a, 21i, 22h, 23a, 23g, 23n, 24a, 24h, 26a and 26n were performed using a Symmetry® column (C18, 5 µm, 4.6 × 150 mm), a Waters 2487 Dual Wavelength Absorbance detector, and an HPLC pump: Waters 1525 binary and Autosampler; Waters 717 plus (Waters Corporation, Milford, MA, USA), mobile phase [(acetonitrile (80%) and water (20%)] with a typical run time of 10 min and a flow rate of 1 mL/min with detection at 254 nm. The selected compounds 21a, 21i, 22h, 23a, 23g, 23n, 24a, 24h, 26a and 26n (5 mg) in the mobile phase (10 mL) provided the stock solution for the analysis. The phosphate buffers were prepared at pH values of 4, 7.4 and 9, as described in the British Pharmacopoeia monograph 2019. The stock solution (30 µL) was added to the appropriate buffer (1 mL) and retained at 37 °C. Samples were then analyzed over the following 24-h period at selected time intervals (t = 0 min, 5 min, 30 min, 60 min, 90 min, 120 min and 24 h).

HG-3 cells [7] = test system: HG-3 cells
[8] = mean over NCI 60 cell line panel

Row | Structure (SMILES) | GI50 (K-562; K-562) | IC50 (PGA-1 cells [1]; PGA-1, 24 h) | CC50 [2] | Mean TGI (MID TGI, total growth inhibition) [2, 8] | GI50 [2, 8] | IC50 (HG-3 cells [3]) | IC50 [4] | GI50 (HL-60(TB); HL-60(TB)) | GI50 (leukemia cell panel) | GI50 (MOLT-4; MOLT-4) | GI50 (RPMI-8226; RPMI-8226) | GI50 (CCRF-CEM) | GI50 (SR) | cell viability (PGA-1 cells [5]) | cell viability (HG-3 cells [7]; 10 µM) | also measured
1 | CCc1ccc(C(=O)/C=C/C23c4ccccc4C(c4ccccc42)C2C(=O)NC(=O)C23)cc1 (centres unmarked) [Compound 23c, 9-((E)-3-(4-Ethylphenyl)-3-oxoprop-1-en-1-yl)-9,10-dihydro-9,10-[3,4]epipyrroloanthracene-12,14-dione] | 2420 nM | 2720 nM | 17000 nM | 4670 nM | 1900 nM | 4610 nM | 3670 nM | 70 nM | 1770 nM | 2230 nM | 1870 nM | 2660 nM | 1370 nM | 7% | – | –
2 | O=C(/C=C/C12c3ccccc3C(c3ccccc31)C1C(=O)NC(=O)C12)c1ccc(Cl)cc1Cl (centres unmarked) [Compound 23d] | 2190 nM | – | 29500 nM | 7580 nM | 2510 nM | – | – | 1580 nM | 1590 nM | 2160 nM | 1100 nM | 1240 nM | 1250 nM | – | – | –
3 | O=C(/C=C/C12c3ccccc3C(c3ccccc31)C1C(=O)NC(=O)C12)c1ccccc1 (centres unmarked) [Compound 23f, (E)-9-(3-oxo-3-phenylprop-1-en-yl)-9,10-dihydro-9,10-[3,4]epipyrroloanthracene-12,14-dione] | – | – | – | 4570 nM | – | – | – | – | – | – | – | – | – | – | – | GI50 (K-562; Homo sapiens, K562, K-562): 1940 nM; IC50 (PGA-1 cells [1]; Homo sapiens, 24 h): 11300 nM; viability at 10 µM (PGA-1 cells [1]; Homo sapiens, 24 h, read-out: cell viability): 13.9%; GI50 ([2]; Homo sapiens, mean over NCI 60 cell line panel): 1820 nM; CC50 ([2]; Homo sapiens, mean over NCI 60 cell line panel, read-out: Mean LC50 (MID LC50)): 14800 nM; cell viability (HG-3 cells [3]; HG-3, 10 µM, 24 h, vehicle = 100%, 10 µM): 2%; IC50 (HG-3 cells [3]; Homo sapiens): 3550 nM; IC50 ([4]; Homo sapiens, CLL cell): 7430 nM; GI50 (HL-60(TB); Homo sapiens, HL-60, HL-60(TB)): 1500 nM; GI50 (leukemia cell panel; Homo sapiens): 1810 nM; GI50 (MOLT-4; Homo sapiens, MOLT-4, MOLT-4): 2170 nM; GI50 (RPMI-8226; Homo sapiens, RPMI-8226, RPMI-8226): 1520 nM; GI50 (CCRF-CEM; Homo sapiens): 2160 nM; GI50 (SR; Homo sapiens): 1570 nM
4 | O=C(/C=C/C12c3ccccc3C(c3ccccc31)C1C(=O)NC(=O)C12)c1ccc(I)cc1 (centres unmarked) [Compound 23g] | – | 2770 nM | – | – | – | 4470 nM | 3620 nM | – | – | – | – | – | – | 2% | 0% | recovery at 24 h ([6]; over the pH range studied (pH 4, 7.4 and 9)): < 50%; Half-life pH 4 [6]: 11.3 h; % remaining 24 h pH 4 [6]: 7.98%; Half-life pH 7.4 [6]: 8.9 h; % remaining 24 h pH 7.4 [6]: 11.02%; Half-life pH 9 [6]: 5.5 h; % remaining 24 h pH 9 [6]: 10.50%
5 | O=C(/C=C/C12c3ccccc3C(c3ccccc31)C1C(=O)NC(=O)C12)c1ccncc1 (centres unmarked) [Compound 23m] | 1880 nM | – | 28200 nM | 7760 nM | 2510 nM | – | – | 1760 nM | 2080 nM | 2570 nM | 2110 nM | 2390 nM | 1760 nM | – | – | –
6 | O=C(/C=C/C12c3ccccc3C(c3ccccc31)C1C(=O)NC(=O)C12)c1ccco1 (centres unmarked) [Compound 23o] | 2570 nM | – | 11000 nM | 3890 nM | 1780 nM | – | – | 320 nM | 1640 nM | 1770 nM | 1680 nM | 1890 nM | – | – | – | –
7 | O=C(/C=C/C12c3ccccc3C(c3ccccc31)C1C(=O)NC(=O)C12)c1ccc2ccccc2c1 (centres unmarked) [Compound 23p] | – | 1300 nM | – | – | – | 1410 nM | 1360 nM | – | – | – | – | – | – | 0% | 0% | cell viability (HG-3 cells [7]; 1 µM): 46%
8 | O=C(/C=C/C12c3ccccc3C(c3ccccc31)C1C(=O)N(c3ccccc3)C(=O)C12)c1ccccc1 (centres unmarked) [Compound 24f, (E)-9-(3-Oxo-3-phenylprop-1-en-yl)-13-phenyl-9,10-dihydro-9,10-[3,4]epipyrroloanthracene-12,14-dione] | 1390 nM | 7130 nM | 72400 nM | 19950 nM | 2090 nM | 7350 nM | 7240 nM | 1020 nM | 1450 nM | 1230 nM | 1550 nM | 1450 nM | 2030 nM | 26% | – | –
9 | O=C(/C=C/C12c3ccccc3C(c3ccccc31)C1C(=O)N(c3ccccc3)C(=O)C12)c1ccc(Cl)cc1 (centres unmarked) [Compound 24l, (E)-9-(3-(4-Chlorophenyl)-3-oxoprop-1-en-1-yl)-13-phenyl-9,10-dihydro-9,10-[3,4] epipyrroloanthracene-12,14-dione] | 1550 nM | 310 nM | 43700 nM | 10720 nM | 1700 nM | 3450 nM | 1880 nM | 800 nM | 980 nM | 760 nM | 1160 nM | 570 nM | 1070 nM | 17% | 24% | –
10 | O=C(/C=C/C12c3ccccc3C(c3ccccc31)C1C(=O)N(c3ccc(C(=O)c4ccccc4)cc3)C(=O)C12)c1ccc(Br)cc1 (centres unmarked) [Compound 26a, (E)-13-(4-Benzoylphenyl)-9-(3-(4-bromophenyl)-3-oxoprop-1-en-1-yl)-9,10-dihydro-9,10-[3,4]epipyrroloanthracene-12,14-dione] | – | – | – | – | – | – | – | – | – | – | – | – | – | 29% | 31% | Half-life pH 4 [6]: > 24 h; % remaining 24 h pH 4 [6]: 64% and 63.95%; Half-life pH 7.4 [6]: > 24 h; % remaining 24 h pH 7.4 [6]: 61% and 61.03%; Half-life pH 9 [6]: > 24 h; % remaining 24 h pH 9 [6]: 66%; decrease in cell viability compared to 26f (PGA-1 cells [1]; PGA-1, 1 µM): 70%; decrease in cell viability compared to 26f (PGA-1 cells [1]; PGA-1, 10 µM): 20%; decrease in cell viability compared to 26f (HG-3 cells [3]; HG-3, 1 µM): 64%; decrease in cell viability compared to 26f (HG-3 cells [3]; HG-3, 10 µM): 29%; cell viability (HG-3 cells [7]; 1 µM): 55%
11 | O=C(c1ccccc1)c1ccc(N2C(=O)C3C4c5ccccc5C(/C=C/C(=O)c5ccccn5)(c5ccccc54)C3C2=O)cc1 (centres unmarked) [Compound 26n, (E)-13-(4-Benzoylphenyl)-9-(3-oxo-3-(pyridin-2-yl)prop-1-en-1-yl)-9,10-dihydro-9,10-[3,4]epipyrroloanthracene-12,14-dione] | 1770 nM | 390 nM | 100000 nM | 100000 nM | 7580 nM | 1850 nM | 1120 nM | 1900 nM | 2070 nM | 2290 nM | 2490 nM | 2590 nM | 1370 nM | 18% | 4% | Half-life pH 4 [6]: 8.5 h; % remaining 24 h pH 4 [6]: 10.97%; Half-life pH 7.4 [6]: 16.5 h; % remaining 24 h pH 7.4 [6]: 40.39%; Half-life pH 9 [6]: over 24 h; % remaining 24 h pH 9 [6]: 51.20%; decrease in cell viability compared to 26f (PGA-1 cells [1]; PGA-1, 1 µM): 20%; decrease in cell viability compared to 26f (PGA-1 cells [1]; PGA-1, 10 µM): 63%; decrease in cell viability compared to 26f (HG-3 cells [3]; HG-3, 1 µM): 34%; decrease in cell viability compared to 26f (HG-3 cells [3]; HG-3, 10 µM): 82%
